Where two headings read alike, the source gives them in different places.
Columns and labels:
Assay type in all cases: cell-based
[1] = target: T1, α7-5HT3 L131G, Q139L, Y217H (Homo sapiens, UniProt P36544, L131G/M226I/Q139L/T225I/Y217H); test: EC50 dose response, α7-5HT3 mutant; details: read-out: EC50s (SEM) for additional mutations of α7^L131G, Q139L, Y217F -5HT3
T1 construct: expressed in transfected cells; host or cells: HEK 293

[2] = target: T2, α7-5HT3 L131G, Q139L, W171Y (Homo sapiens, UniProt P36544, L131G/M226I/Q139L/T225I/W171Y); test: EC50 dose response, α7-5HT3 mutant; details: read-out: EC50s (SEM) for additional mutations of α7^L131G, Q139L, Y217F -5HT3
T2 construct: expressed in transfected cells; host or cells: HEK 293

[3] = target: T3, α7^L131G,Q139L,Y217F-5HT3 V154I, R155Y, W156N, S172A (Homo sapiens, UniProt P36544, L131G/M226I/Q139L/R155Y/S172A/T225I/V154I/W156N/Y217F); test: EC50 dose response, PSAM4-5HT3 with additional mutations; details: read-out: EC50s (SEM) for additional mutations of α7^L131G, Q139L, Y217F -5HT3
T3 construct: expressed in transfected cells; host or cells: HEK 293

[4] = target: T4, α7^L131G,Q139L,Y217F-5HT3 H163F (Homo sapiens, UniProt P36544, H163F/L131G/M226I/Q139L/T225I/Y217F); test: as above; details: additional mutation H163F; read-out: EC50s (SEM) for additional mutations of α7^L131G, Q139L, Y217F -5HT3
T4 construct: expressed in transfected cells; host or cells: HEK 293

[5] = target: T5, α7^L131G,Q139L,Y217F-5HT3 S172I (Homo sapiens, UniProt P36544, L131G/M226I/Q139L/S172I/T225I/Y217F); test: as above; details: additional mutation S172I; read-out: EC50s (SEM) for additional mutations of α7^L131G, Q139L, Y217F -5HT3
T5 construct: expressed in transfected cells; host or cells: HEK 293

[6] = target: T6, α7^L131G,Q139L,Y217F-5HT3 H163K (Homo sapiens, UniProt P36544, H163K/L131G/M226I/Q139L/T225I/Y217F); test: as above; details: additional mutation H163K; read-out: EC50s (SEM) for additional mutations of α7^L131G, Q139L, Y217F -5HT3
T6 construct: expressed in transfected cells; host or cells: HEK 293

[7] = target: T7, α7^L131G,Q139L,Y217F-5HT3 H163T, S172V (Homo sapiens, UniProt P36544, H163T/L131G/M226I/Q139L/S172V/T225I/Y217F); test: as above; details: read-out: EC50s (SEM) for additional mutations of α7^L131G, Q139L, Y217F -5HT3
T7 construct: expressed in transfected cells; host or cells: HEK 293

[8] = target: T8, α7^L131G,Q139L,Y217F-5HT3 H163A (Homo sapiens, UniProt P36544, H163A/L131G/M226I/Q139L/T225I/Y217F); test: as above; details: additional mutation H163A; read-out: EC50s (SEM) for additional mutations of α7^L131G, Q139L, Y217F -5HT3
T8 construct: expressed in transfected cells; host or cells: HEK 293

[9] = target: T9, α7^L131G,Q139L,Y217F-5HT3 S172V (Homo sapiens, UniProt P36544, L131G/M226I/Q139L/S172V/T225I/Y217F); test: as above; details: additional mutation S172V; read-out: EC50s (SEM) for additional mutations of α7^L131G, Q139L, Y217F -5HT3
T9 construct: expressed in transfected cells; host or cells: HEK 293

[10] = target: T10, α7^L131G,Q139L,Y217F-5HT3 H163V (Homo sapiens, UniProt P36544, H163V/L131G/M226I/Q139L/T225I/Y217F); test: as above; details: additional mutation H163V; read-out: EC50s (SEM) for additional mutations of α7^L131G, Q139L, Y217F -5HT3
T10 construct: expressed in transfected cells; host or cells: HEK 293

[11] = target: T11, α7-5HT3 L131G, Q139L, Y217V (Homo sapiens, UniProt P36544, L131G/M226I/Q139L/T225I/Y217V); test: EC50 dose response, α7-5HT3 mutant; details: read-out: EC50s (SEM) for additional mutations of α7^L131G, Q139L, Y217F -5HT3
T11 construct: 5HT3 ion pore domain (fusion partner); expressed in transfected cells; HEK 293 is named only for the electrophysiology

[12] = target: T12, α7^L131G,Q139L,Y217F-5HT3 H163S (Homo sapiens, UniProt P36544, H163S/L131G/M226I/Q139L/T225I/Y217F); test: EC50 dose response, PSAM4-5HT3 with additional mutations; details: additional mutation H163S; read-out: EC50s (SEM) for additional mutations of α7^L131G, Q139L, Y217F -5HT3
T12 construct: expressed in transfected cells; host or cells: HEK 293

[13] = target: T13, α7-5HT3 L131G, Q139L, W171F (Homo sapiens, UniProt P36544, L131G/M226I/Q139L/T225I/W171F); test: EC50 dose response, α7-5HT3 mutant; details: read-out: EC50s (SEM) for additional mutations of α7^L131G, Q139L, Y217F -5HT3
T13 construct: expressed in transfected cells; host or cells: HEK 293

[14] = target: T14, α7-5HT3 L131G, Q139L, Y217A (Homo sapiens, UniProt P36544, L131G/M226I/Q139L/T225I/Y217A); test: EC50 dose response, α7-5HT3 mutant; details: read-out: EC50s (SEM) for additional mutations of α7^L131G, Q139L, Y217F -5HT3
T14 construct: expressed in transfected cells; host or cells: HEK 293

[15] = target: T15, α7^L131G,Q139L,Y217F-5HT3 W156N (Homo sapiens, UniProt P36544, L131G/M226I/Q139L/T225I/W156N/Y217F); test: cell-based; details: additional mutation W156N; read-out: EC50s (SEM) for additional mutations of α7^L131G, Q139L, Y217F -5HT3
T15 construct: expressed in transfected cells; host or cells: HEK 293

[16] = target: T16, α7^L131G,Q139L,Y217F-5HT3 W156N, H163T (Homo sapiens, UniProt P36544, H163T/L131G/M226I/Q139L/T225I/W156N/Y217F); test: EC50 dose response, PSAM4-5HT3 with additional mutations; details: read-out: EC50s (SEM) for additional mutations of α7^L131G, Q139L, Y217F -5HT3
T16 construct: expressed in transfected cells; host or cells: HEK 293

[17] = target: T17, α7^L131G,Q139L,Y217F-5HT3 H163R (Homo sapiens, UniProt P36544, H163R/L131G/M226I/Q139L/T225I/Y217F); test: as above; details: additional mutation H163R; read-out: EC50s (SEM) for additional mutations of α7^L131G, Q139L, Y217F -5HT3
T17 construct: expressed in transfected cells; host or cells: HEK 293

[18] = target: T18, α7^L131G,Q139L,Y217F-5HT3 H163T, S172A (Homo sapiens, UniProt P36544, H163T/L131G/M226I/Q139L/S172A/T225I/Y217F); test: as above; details: read-out: EC50s (SEM) for additional mutations of α7^L131G, Q139L, Y217F -5HT3
T18 construct: expressed in transfected cells; host or cells: HEK 293

[19] = target: T19, α7-5HT3 L131G, Q139L, Y217N (Homo sapiens, UniProt P36544, L131G/M226I/Q139L/T225I/Y217N); test: EC50 dose response, α7-5HT3 mutant; details: read-out: EC50s (SEM) for additional mutations of α7^L131G, Q139L, Y217F -5HT3
T19 construct: 5HT3 ion pore domain (fusion partner); expressed in transfected cells

[20] = target: T20, α7^L131G,Q139L,Y217F-5HT3 S172A (Homo sapiens, UniProt P36544, L131G/M226I/Q139L/S172A/T225I/Y217F); test: EC50 dose response, PSAM4-5HT3 with additional mutations; details: additional mutation S172A; read-out: EC50s (SEM) for additional mutations of α7^L131G, Q139L, Y217F -5HT3
T20 construct: expressed in transfected cells; host or cells: HEK 293

[21] = target: T21, α7^L131G,Q139L,Y217F-5HT3 V154I, R155Y, W156N, S172V (Homo sapiens, UniProt P36544, L131G/M226I/Q139L/R155Y/S172V/T225I/V154I/W156N/Y217F); test: as above; details: read-out: EC50s (SEM) for additional mutations of α7^L131G, Q139L, Y217F -5HT3
T21 construct: expressed in transfected cells; host or cells: HEK 293

[22] = target: T22, PSAM4-5HT3 (α7-5HT3^L131G,Q139L,Y217F) (Homo sapiens, UniProt P36544, L131G/M226I/Q139L/T225I/Y217F); test: EC50 dose response of LGIC ligands on PSAM4-5HT3; details: read-out: EC50s (SEM) for additional mutations of α7^L131G, Q139L, Y217F -5HT3
T22 construct: expressed in transfected cells; host or cells: HEK 293

[23] = target: T23, α7^L131G,Q139L,Y217F-5HT3 H163T (Homo sapiens, UniProt P36544, H163T/L131G/M226I/Q139L/T225I/Y217F); test: EC50 dose response, PSAM4-5HT3 with additional mutations; details: additional mutation H163T; read-out: EC50s (SEM) for additional mutations of α7^L131G, Q139L, Y217F -5HT3
T23 construct: expressed in transfected cells; host or cells: HEK 293

[24] = target: T24, α7^L131G,Q139L,Y217F-5HT3 H163D (Homo sapiens, UniProt P36544, H163D/L131G/M226I/Q139L/T225I/Y217F); test: as above; details: additional mutation H163D; read-out: EC50s (SEM) for additional mutations of α7^L131G, Q139L, Y217F -5HT3
T24 construct: expressed in transfected cells; host or cells: HEK 293

[25] = target: T25, α7^L131G,Q139L,Y217F-5HT3 H163N (Homo sapiens, UniProt P36544, H163N/L131G/M226I/Q139L/T225I/Y217F); test: as above; details: additional mutation H163N; read-out: EC50s (SEM) for additional mutations of α7^L131G, Q139L, Y217F -5HT3
T25 construct: expressed in transfected cells; host or cells: HEK 293

[26] = target: T26, α7^L131G,Q139L,Y217F-5HT3 V154L, R155Y, W156Q (Homo sapiens, UniProt P36544, L131G/M226I/Q139L/R155Y/T225I/V154L/W156Q/Y217F); test: as above; details: read-out: EC50s (SEM) for additional mutations of α7^L131G, Q139L, Y217F -5HT3
T26 construct: expressed in transfected cells; host or cells: HEK 293

[27] = target: T27, α7^L131G,Q139L,Y217F-5HT3 V154I, R155Y, W156N (Homo sapiens, UniProt P36544, L131G/M226I/Q139L/R155Y/T225I/V154I/W156N/Y217F); test: as above; details: read-out: EC50s (SEM) for additional mutations of α7^L131G, Q139L, Y217F -5HT3
T27 construct: expressed in transfected cells; host or cells: HEK 293

[28] = PSAM4-5HT3 (no additional mutation)
[29] = line L131G, Q139L, Y217F (same values as PSAM4-5HT3 line)

T22 sequence (P36544 with tags, fused parts or gaps L131G/Q139L/Y217F/T225I/M226I limits assumed): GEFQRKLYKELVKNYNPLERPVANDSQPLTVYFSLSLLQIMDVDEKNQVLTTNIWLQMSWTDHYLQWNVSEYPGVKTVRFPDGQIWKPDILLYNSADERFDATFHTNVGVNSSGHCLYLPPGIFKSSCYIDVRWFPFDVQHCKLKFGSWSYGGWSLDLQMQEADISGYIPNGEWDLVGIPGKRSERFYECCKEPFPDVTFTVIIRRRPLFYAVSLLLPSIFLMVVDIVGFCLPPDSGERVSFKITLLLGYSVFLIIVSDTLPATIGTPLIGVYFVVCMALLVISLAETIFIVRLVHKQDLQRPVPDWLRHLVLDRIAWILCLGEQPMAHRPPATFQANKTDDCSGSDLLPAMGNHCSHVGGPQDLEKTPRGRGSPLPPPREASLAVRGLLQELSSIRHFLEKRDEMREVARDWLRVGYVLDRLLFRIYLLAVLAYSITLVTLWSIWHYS
T20 sequence (P36544 with tags, fused parts or gaps L131G/Q139L/S172A/Y217F/T225I/M226I limits assumed): as the sequence (P36544 with tags, fused parts or gaps L131G/Q139L/Y217F/T225I/M226I limits assumed) above, with S150A counted along it
T5 sequence (P36544 with tags, fused parts or gaps L131G/Q139L/S172I/Y217F/T225I/M226I limits assumed): as the sequence (P36544 with tags, fused parts or gaps L131G/Q139L/Y217F/T225I/M226I limits assumed) above, with S150I counted along it
T11 sequence (P36544 with tags, fused parts or gaps L131G/Q139L/Y217V/T225I/M226I limits assumed): as the sequence (P36544 with tags, fused parts or gaps L131G/Q139L/Y217F/T225I/M226I limits assumed) above, with F195V counted along it
T6 sequence (P36544 with tags, fused parts or gaps L131G/Q139L/H163K/Y217F/T225I/M226I limits assumed): as the sequence (P36544 with tags, fused parts or gaps L131G/Q139L/Y217F/T225I/M226I limits assumed) above, with H141K counted along it
T9 sequence (P36544 with tags, fused parts or gaps L131G/Q139L/S172V/Y217F/T225I/M226I limits assumed): as the sequence (P36544 with tags, fused parts or gaps L131G/Q139L/Y217F/T225I/M226I limits assumed) above, with S150V counted along it
T15 sequence (P36544 with tags, fused parts or gaps L131G/Q139L/W156N/Y217F/T225I/M226I limits assumed): as the sequence (P36544 with tags, fused parts or gaps L131G/Q139L/Y217F/T225I/M226I limits assumed) above, with W134N counted along it
T26 sequence (P36544 with tags, fused parts or gaps L131G/Q139L/V154L/R155Y/W156Q/Y217F/T225I/M226I limits assumed): as the sequence (P36544 with tags, fused parts or gaps L131G/Q139L/Y217F/T225I/M226I limits assumed) above, with V132L, R133Y, W134Q counted along it
T1 sequence (P36544 with tags, fused parts or gaps L131G/Q139L/Y217H/T225I/M226I limits assumed): as the sequence (P36544 with tags, fused parts or gaps L131G/Q139L/Y217F/T225I/M226I limits assumed) above, with F195H counted along it
T3 sequence (P36544 with tags, fused parts or gaps L131G/Q139L/V154I/R155Y/W156N/S172A/Y217F/T225I/M226I limits assumed): as the sequence (P36544 with tags, fused parts or gaps L131G/Q139L/Y217F/T225I/M226I limits assumed) above, with V132I, R133Y, W134N, S150A counted along it
T24 sequence (P36544 with tags, fused parts or gaps L131G/Q139L/H163D/Y217F/T225I/M226I limits assumed): as the sequence (P36544 with tags, fused parts or gaps L131G/Q139L/Y217F/T225I/M226I limits assumed) above, with H141D counted along it

Row | Structure (SMILES) | EC50 [1] [nM] | EC50 [2] [nM] | EC50 [3] [nM] | EC50 [4] [nM] | EC50 [5] [nM] | EC50 [6] [nM] | EC50 [7] [nM] | EC50 [8] [nM] | EC50 [9] [nM] | EC50 [10] [nM] | EC50 [11] [nM] | EC50 [12] [nM] | EC50 [13] [nM] | EC50 [14] [nM] | EC50 [15] [nM] | EC50 [16] [nM] | EC50 [17] [nM] | EC50 [18] [nM] | EC50 [19] [nM] | EC50 [20] [nM] | further results
1 | COc1cnc2cc3c(cc2n1)C1CNCC3C1 (stereo not shown) [uPSEM 793] | 0.8 | > 100 | 4.1 | 0.7 | 10 | 0.5 | 1.5 | 0.5 | 2.7 | 1.5 | 2.4 | 0.4 | > 100 | 1.2 | 0.7 | 2 | 1.5 | 2.5 | > 100 | 4 | EC50 [21]: 7.7 nM; EC50 [22, 28]: 1.7 nM; EC50 [22, 29]: 1.7 nM; EC50 [23]: 1.4 nM; EC50 [24]: 0.3 nM; EC50 [25]: 2.1 nM; EC50 [26]: 0.7 nM
2 | CCCOc1cnc2cc3c(cc2n1)C1CNCC3C1 (stereo not shown) [uPSEM 817] | 16 | > 100 | 12 | 8.2 | 18 | 10 | 6.3 | 53 | 6 | 9 | 24 | 8.1 | > 100 | 9.2 | 15 | 13 | 5.5 | 7.8 | > 100 | 7 | EC50 [27]: 13 nM; EC50 [21]: 13 nM; EC50 [22, 28]: 4.1 nM; EC50 [22, 29]: 4.1 nM; EC50 [23]: 12 nM; EC50 [24]: 2.5 nM; EC50 [25]: 9.1 nM; EC50 [26]: 17 nM

— patent US20250145687A1, “MODIFIED LIGAND-GATED ION CHANNELS AND METHODS OF USE” (Howard Hughes Medical Institute, priority 2022, published 2025)
